Measurements as given in US7737155B2, “Nitrogen-containing heterocyclic compounds and methods of use thereof” (Schering Corporation, priority 2005, dated 2010).

Biological target: recombinant human nicotinic acid receptor (NAR) (Homo sapiens, UniProt Q8TDS4)
Experiment: Nicotinic Acid Receptor Assay: inhibition of forskolin-stimulated cAMP accumulation in CHO cells (MesoScale Discovery cAMP kit)
Assay type: cell-based
Details: CHO cells expressing recombinant human NAR; forskolin-stimulated cAMP; read-out: NA EC50 camp
How it was run: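 Compounds were diluted in PBS containing 6 μM forskolin and incubated with cells for 30 min at room temperature. cAMP was quantified by the MesoScale kit against an on-plate standard curve.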

Sequence of recombinant human nicotinic acid receptor (NAR) (Q8TDS4 whole entry): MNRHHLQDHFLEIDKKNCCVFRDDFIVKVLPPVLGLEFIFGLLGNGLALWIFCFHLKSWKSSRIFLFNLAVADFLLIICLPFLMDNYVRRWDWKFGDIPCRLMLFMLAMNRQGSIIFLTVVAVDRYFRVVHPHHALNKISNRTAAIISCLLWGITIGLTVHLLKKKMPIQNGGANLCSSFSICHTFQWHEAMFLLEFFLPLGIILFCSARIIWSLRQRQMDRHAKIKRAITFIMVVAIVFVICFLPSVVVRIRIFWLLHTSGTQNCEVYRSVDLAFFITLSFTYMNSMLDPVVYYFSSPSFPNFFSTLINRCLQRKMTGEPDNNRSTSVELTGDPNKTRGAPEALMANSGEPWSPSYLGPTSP

| Compound | EC50 [nM] |
| --- | --- |
| CCCCCc1cc(=O)oc2nc(ONC(=O)OCC)[nH]c(=O)c12 [Compound 695] | 0.001 to 100 |
| O=c1[nH]c(=O)c2c(C3CCCC3)cc(=O)oc2[nH]1 [Compound 227] | > 1000 |
| CC(C)(C)CCc1cc(=O)oc2[nH]c(=O)[nH]c(=O)c12 [Compound 263] | > 1000 |
| CCC(C)(C)Cc1cc(=O)oc2[nH]c(=O)[nH]c(=O)c12 [Compound 204] | > 1000 |
| CCc1cc(=O)oc2nc(OCc3cc(C)c(OC)c(C)n3)[nH]c(=O)c12 [Compound 511] | > 1000 |
| CCc1cc(=O)oc2nc(OCc3ccc(Cl)c(C(F)(F)F)c3)[nH]c(=O)c12 [Compound 521] | 100 to 1000 |
| CCOC(=O)NOc1nc2oc(=O)cc(CCC3CC3)c2c(=O)[nH]1 [Compound 696] | 100 to 1000 |
| CCc1cc(=O)oc2nc(OC(C)COC)[nH]c(=O)c12 (stereo not shown) [Compound 607] | 100 to 1000 |
| COC(=O)CCc1cc(=O)oc2[nH]c(=O)[nH]c(=O)c12 [Compound 216] | 100 to 1000 |
| CCc1cc(=O)oc2nc(OCc3ccncc3Cl)[nH]c(=O)c12 [Compound 629] | 100 to 1000 |
| O=c1cc(CCCCC2CC2)c2c(=O)n(C3CCC3)c(=O)[nH]c2o1 [Compound 200] | 100 to 1000 |
| CCc1cc(=O)oc2nc(OCCS(C)(=O)=O)[nH]c(=O)c12 [Compound 588] | > 1000 |
| CCc1cc(=O)oc2nc(OCc3ccccc3-c3cccc(CO)c3)[nH]c(=O)c12 [Compound 634] | 100 to 1000 |
| CCc1cc(=O)oc2nc(OCCO)[nH]c(=O)c12 [Compound 643] | 100 to 1000 |
| CCc1cc(=O)oc2nc(OC[C@H]3CN([C@H](C)c4ccccc4)C(=O)O3)[nH]c(=O)c12 [Compound 613] | 100 to 1000 |
| CCc1cc(=O)oc2nc(OCC(C)(C)S(=O)(=O)c3ccc(Cl)cc3)[nH]c(=O)c12 [Compound 663] | > 1000 |
| CCc1cc(=O)oc2nc(OCc3cnco3)[nH]c(=O)c12 [Compound 657] | > 1000 |
| O=c1[nH]c(=O)c2c(CCC(C3CC3)C3CC3)cc(=O)oc2[nH]1 [Compound 293] | 100 to 1000 |
| CCc1cc(=O)oc2nc(OCc3ccccc3-c3cccc(C(=O)N(C)C)c3)[nH]c(=O)c12 [Compound 552] | 100 to 1000 |
| CCc1cc(=O)oc2nc(OCCSc3ccc(Cl)cc3)[nH]c(=O)c12 [Compound 587] | > 1000 |
| CCc1cc(=O)oc2nc(OCc3ccccc3-n3ccnc3C)[nH]c(=O)c12 [Compound 583] | 100 to 1000 |
| CCc1cc(=O)oc2nc(OCc3ccncc3F)[nH]c(=O)c12 [Compound 625] | 100 to 1000 |
| CCc1cc(=O)oc2nc(OCC#CCN(C)C)[nH]c(=O)c12 [Compound 641] | 0.001 to 100 |
| CCc1cc(=O)oc2nc(OCc3ocnc3C)[nH]c(=O)c12 [Compound 513] | 100 to 1000 |
| CCc1cc(=O)oc2nc(OCc3ccncc3NC(=O)C(C)(C)C)[nH]c(=O)c12 [Compound 659] | > 1000 |
| CCc1cc(=O)oc2nc(OCc3ccc(C(F)(F)F)cc3C(F)(F)F)[nH]c(=O)c12 [Compound 514] | > 1000 |
| O=c1[nH]c(=O)c2c(CC3CCCC(C(F)(F)F)C3)cc(=O)oc2[nH]1 (stereo not shown) [Compound 213] | 100 to 1000 |
| CCc1cc(=O)oc2nc(OCC(=O)N(CC)CC)[nH]c(=O)c12 [Compound 621] | 100 to 1000 |

| Compound | EC50 [nM] |
| --- | --- |
| CC(=O)Nc1ccc(-c2c(CCC3CCC3)c3c(=O)[nH]c(=O)[nH]c3oc2=O)cc1 [Compound 704] | > 1000 |
| O=c1[nH]c(=O)c2c(CCCC3CCCC3)cc(=O)oc2[nH]1 [Compound 297] | 0.001 to 100 |
| CCc1cc(=O)oc2nc(OCCOC3CCCC3)[nH]c(=O)c12 [Compound 606] | > 1000 |
| O=c1cc(CCCCc2cccs2)c2c(=O)n(C3CCC3)c(=O)[nH]c2o1 [Compound 280] | > 1000 |
| CCc1cc(=O)oc2nc(OCCOc3cccc(C)c3)[nH]c(=O)c12 [Compound 598] | 100 to 1000 |
| CCc1cc(=O)oc2nc(OCCOc3c(OC)cccc3OC)[nH]c(=O)c12 [Compound 622] | 100 to 1000 |
| O=c1[nH]c(=O)c2c(Cc3cccc4ccccc34)cc(=O)oc2[nH]1 [Compound 265] | > 1000 |
| CC1CCC(Cc2cc(=O)oc3[nH]c(=O)n(C4CCC4)c(=O)c23)CC1 (stereo not shown) [Compound 246] | > 1000 |
| O=c1[nH]c(=O)c2c(CCc3cccs3)cc(=O)oc2[nH]1 [Compound 229] | 0.001 to 100 |
| CCc1cc(=O)oc2nc(OCCc3cccc4ccccc34)[nH]c(=O)c12 [Compound 537] | > 1000 |
| CCc1cc(=O)oc2nc(OCc3ccc(-c4cccc(OC)c4)cc3F)[nH]c(=O)c12 [Compound 572] | 100 to 1000 |
| CCc1cc(=O)oc2nc(OCc3cnoc3C)[nH]c(=O)c12 [Compound 668] | > 1000 |
| CCn1c(=O)[nH]c2oc(=O)cc(CCC3CC3)c2c1=O [Compound 278] | 100 to 1000 |
| O=c1cc(CCC2CCCC2)c2c(=O)n(C3CCC3)c(=O)[nH]c2o1 [Compound 241] | 0.001 to 100 |
| CCc1cc(=O)oc2nc(OCc3cc(C)nn3C)[nH]c(=O)c12 [Compound 529] | 100 to 1000 |
| CCc1cc(=O)oc2nc(OCc3ccccc3-c3ccc(CO)cc3)[nH]c(=O)c12 [Compound 548] | 100 to 1000 |
| O=C(NCCCc1cc(=O)oc2[nH]c(=O)[nH]c(=O)c12)OCc1ccccc1 [Compound 228] | > 1000 |
| CCc1cc(=O)oc2nc(OCc3cc(Br)no3)[nH]c(=O)c12 [Compound 649] | 100 to 1000 |
| O=c1cc(CCCCC2CC2)c2c(=O)[nH]c(=O)n(C3CCC3)c2o1 [Compound 210] | 100 to 1000 |
| CCc1cc(=O)oc2nc(OCc3cccc(OC)n3)[nH]c(=O)c12 [Compound 544] | 100 to 1000 |
| CCCCc1c(-c2ccc(Cl)cc2)c(=O)oc2[nH]c(=O)[nH]c(=O)c12 [Compound 705] | > 1000 |
| O=c1[nH]c(=O)c2c(CCCc3cc(-c4cccc(C(F)(F)F)c4)no3)cc(=O)oc2[nH]1 [Compound 249] | 100 to 1000 |
| CCc1cc(=O)oc2nc(OCCN3CCCC3)[nH]c(=O)c12 [Compound 579] | > 1000 |
| O=c1cc(CCC2CCCC2)c2c(=O)[nH]c(=O)n(C3CCC3)c2o1 [Compound 242] | > 1000 |
| COCC#CCOc1nc2oc(=O)cc(Cc3cccc(F)c3)c2c(=O)[nH]1 [Compound 684] | 0.001 to 100 |
| CC/C=C\CCc1cc(=O)oc2[nH]c(=O)n(CC3CC3)c(=O)c12 [Compound 254] | > 1000 |
| CCc1cc(=O)oc2nc(OCC#CC(C)OC)[nH]c(=O)c12 (stereo not shown) [Compound 672] | 100 to 1000 |

Same assay, conditions: NA EC50 camp (nM), CHO cells expressing recombinant human NAR; forskolin-stimulated cAMP

| Compound | EC50 [nM] |
| --- | --- |
| CCc1noc(CC)c1COc1nc2oc(=O)cc(CC)c2c(=O)[nH]1 [Compound 667] | 100 to 1000 |
| CCc1cc(=O)oc2nc(OCc3cccc(-c4cccc(C#N)c4)c3)[nH]c(=O)c12 [Compound 567] | 100 to 1000 |
| CCC#CCOc1nc2oc(=O)cc(Cc3ccccc3)c2c(=O)[nH]1 [Compound 615] | 100 to 1000 |
| CCc1cc(=O)oc2nc(OCc3ccccc3-c3cccc(C#N)c3)[nH]c(=O)c12 [Compound 509] | 100 to 1000 |

Same assay, conditions: NA EC50 camp, inhibition of forskolin-stimulated cAMP accumulation, CHO cells expressing recombinant human NAR

| Compound | EC50 [nM] |
| --- | --- |
| CC1(CCCc2cc(=O)oc3nc(C(F)F)[nH]c(=O)c23)CC1 [Compound 811] | 22 |
| CCCCCc1cc(=O)oc2nc(C(F)F)[nH]c(=O)c12 [Compound 743] | 212 |

Same assay, conditions: inhibition of forskolin-stimulated cAMP accumulation, CHO cells expressing recombinant human NAR; read-out: NA EC50 camp

| Compound | EC50 [nM] |
| --- | --- |
| CCc1cc(=O)oc2[nH]c(=O)n(OC)c(=O)c12 [Compound 768] | 384 |
| CCCCc1cc(=O)oc2c1c(=O)[nH]c(=O)n2OCC [Compound 778] | 9150 |
| COn1c(=O)[nH]c2oc(=O)cc(CCC3CCC3)c2c1=O [Compound 769] | 19 |
| CCc1cc(=O)oc2nc(OCc3ccccc3F)[nH]c(=O)c12 [Compound 74] | 183 |
| CCCc1cc(=O)oc2[nH]c(=O)nc(OCF)c12 [Compound 832] | 304 |
| O=c1[nH]c(=O)c2c(Cc3ccsc3)cc(=O)oc2[nH]1 [Compound 135] | 4.8 |
| CCCCc1cc(=O)oc2[nH]c(=O)n(CF)c(=O)c12 [Compound 803] | 3450 |
| O=c1[nH]c(=O)c2c(CCCC3CCCC3)cc(=O)oc2[nH]1 [Compound 297] | 56.7 |
| CCc1cc(=O)oc2[nH]c(=O)n(C3CCC3)c(=O)c12 [Compound 35] | 9 |
| O=c1cc(CCC2CCCC2)c2c(=O)[nH]c(CF)nc2o1 [Compound 747] | 1230 |
| CCCCc1cc(=O)oc2[nH]c(=O)n(OCc3ccccc3)c(=O)c12 [Compound 799] | > 10000 |
| CCCCc1cc(=O)oc2[nH]c(=O)nc(OCCOC)c12 [Compound 787] | 682 |
| CCCCc1cc(=O)oc2nc(OCC#CC(C)O)[nH]c(=O)c12 (stereo not shown) [Compound 737] | 59.5 |
| C#CCCCc1cc(=O)oc2[nH]c(=O)[nH]c(=O)c12 [Compound 128] | 6.3 |
| O=c1nc(OCC(F)F)c2c(CCC3CCC3)cc(=O)oc2[nH]1 [Compound 830] | 112 |
| O=c1cc(CCC2CCCC2)c2c(=O)n(C3CCC3)c(=O)[nH]c2o1 [Compound 241] | 13 |
| CC1CCC(Cc2cc(=O)oc3[nH]c(=O)[nH]c(=O)c23)CC1 (stereo not shown) [Compound 127] | 57.3 |
| CCCCc1cc(=O)oc2c1c(=O)[nH]c(=O)n2OCc1ccccc1 [Compound 798] | > 10000 |
